# Test results from patent US6949352B2, “Serine-threonine phosphatase protein of a parasitic organism of the Apicomplexa phylum, applications in therapeutics” (Centre National de la Recherche Scientifique (CNRS), priority 2001, dated 2005).
# Columns and labels:
# [1] = test system: parasite kinase activity which phosphorylates Toxofilin; experiment: Kinase reaction on rToxofilin with tachyzoïte cytosolic fraction, with pharmacological inhibitors; type: biochemical, Toxoplasma gondii; conditions: inhibitors added 15 min before starting the kinase reaction: heparin 20 μg per ml, GTP 200 μM, DRB 100 μM, [γ32P] ATP, 30° C.
# Description: Kinase reaction: 2 μg of immobilized rToxofilin on protein G-dynabeads were washed in kinase buffer before to be incubated with a tachyzoïte cytosolic fraction prepared in kinase buffer ([…]) and precleared on protein G-dynabeads. The reaction was started by adding 100 μM of Na2 ATP and 10 μCi of [γ^32P] ATP (3000 Ci/mmol, NEN life science product, Inc) (15 min, 30° C.). Unbound materials and unincorporated [γ^32P] ATP were washed out with 200 volumes of kinase buffer containing with TX-100 (0.5% vol/vol) followed by 100 volumes of kinase buffer. Toxofilin and bound proteins were eluted in SDS-PAGE sample buffer prior to electrophoresis and radioactivity scan (phosphoimager, Molecular Dynamics). Toxofilin phosphorylation was quantified using NIH Image Quant software.
# To characterize the kinase activity responsible for Toxofilin phosphorylation, three types of experiments were carried out:
# 1) Pharmacological inhibitors such as heparin (20 μg per ml, Sigma), GTP (200 μM, Sigma), 5,6-dichloro-1-B-D-ribofuranosylbenzimidazole (100 μM, Calbiochem) or staurosporine (1 μM, Calbiochem) were added 15 min before starting the kinase reaction.
# [2] = test system: recombinant Toxofilin (r-Toxofilin) without GST
# [3] = target: recombinant Toxofilin (r-Toxofilin) without GST; remark: listed apart in the source
Molecule,inhibition of the parasite kinase activity which phosphorylates Toxofilin [1],also measured
"OC[C@H]1O[C@@H](n2cnc3cc(Cl)c(Cl)cc32)[C@H](O)[C@@H]1O [DRB, 5,6-dichloro-1-B-D-ribofuranosylbenzimidazole]",inhibited,–
Nc1nc2c(ncn2[C@@H]2O[C@H](COP(=O)(O)OP(=O)(O)OP(=O)(O)O)[C@@H](O)[C@H]2O)c(=O)[nH]1 [GTP],inhibited,–
Human casein kinase II,–,phosphorylation of Toxofilin [2]: Human casein kinase II works well at phosphorylating Toxofilin
heparin [soluble heparin],inhibited,–
Thioredoxin-Hispatch Tg PP2C (protein) MKSSAEIRRTMDVPPTIHVPLPPTSYPAFDAAIFTDIGGRKHQEDRFTLCPQLVPGRDDCAFFGVFDGTVGDFASENVKDLVVPQLISSPAWQEVTEMLRSDVPATEVDEKLPQLLDQAVDDMYKNADNELVKMCEQLNKDYASSTSVTAVLAKGFVAVGHLGDSRIAMGVETPNGLNCEFLTVDHKPDMPHEKLRIMRNGGSVEYLHNHNNKPFIRGGDFSFRKSRGEQPMQLQYSRALGGKDLKMYGLSNQPDVRVVRVTPQHRVMILATDGLWDVMFAAQAVEIAMQARQEGRNPAQALVEMTLAEQQSRNQSADNITAMTVFFKKTD,–,in vitro phosphatase assay on 32P-phosphorylated Toxofilin [3]: Toxofilin is a major substrate for type 2C phosphatase
